The structures appear in SMILES notation. pIC50: −log10 of the molar value.

These results are taken from US6743939B2, “Phenylheteroalkylamine derivatives” (AstraZeneca AB, priority 2000, dated 2004).

Data set [1] addresses T1, nitric oxide synthase (induced, from murine macrophage cell line J774A-1) (Mus musculus, UniProt P29477).
T1 construct: The reaction is started by adding 50 μl of cell lysate (prepared as above); endogenous in cells; host or cells: J774A-1 murine macrophage cell line, induced with LPS and IFN-gamma; crude cell lysate
Description: Screen 1: nitric oxide synthase inhibition, 3H-L-arginine to 3H-L-citrulline conversion, lysate of induced J774A-1 cells. It counts as biochemical. Particulars: standard to verify the procedure, 1 hour at room temperature, read-out: IC50 (50% inhibitory concentration). Here is the method: The activity of compounds of formula (I), or a pharmaceutically acceptable salt, enantiomer or racemate thereof, may be screened for nitric oxide synthase inhibiting activity by a procedure based on that of Förstermann et al., Eur. J. Pharm., 1992, 225; 161-165. Nitric oxide synthase converts ^3H-L-arginine into ^3H-L-citrulline which can be separated by cation exchange chromatography and quantified by liquid scintillation counting.
Enzyme is prepared, after induction, from the cultured murine macrophage cell line J774A-1 (obtained from the laboratories of the Imperial Cancer Research Fund). J774A-1 cells are cultured in Dulbeccos Modified Eagles Medium (D[MEM) supplemented with 10% foetal bovine serum, 4 mM L-glutamine and antibiotics (100 units/ml penicillin G, […] streptomycin & […] amphotericin B). Cells are routinely grown in […] flasks containing 35 ml medium kept at 37° C. and in a humidified atmosphere containing 5% CO2. […]
Labelled L-citrulline is separated from labelled L-arginine using Dowex AG-50W. […] After allowing the samples to dry the L-citrulline is quantified by scintillation counting.
In a typical experiment basal activity is 300 dpm per 75 μl sample which is increased to 1900 dpm in the reagent controls. […] Compounds are tested at a range of concentrations and from the inhibitions obtained IC50 values are calculated. […]

Regarding `C[C@@H](CO)NCCC[C@@H](Oc1cc(Cl)ccc1C#N)c1ccccc1.O=C(O)C(=O)O` [Example 13, 4-Chloro-2-[[(1R)-4-[[(1S)-2-hydroxy-1-methylethyl]amino]-1-phenylbutyl]oxy]-benzonitrile ethanedioate], the melting point (in general, the temperature, or range, at which the solid turns liquid) was 186 to 187 °C.
The compound `CCN(CCO)CCC[C@@H](Oc1cc(Cl)ccc1C#N)c1ccccc1.Cl` returned a melting point of 141 to 144 °C.
Turning to `CNCC[C@@H](Cc1ccc(C)cc1)Oc1cc(Cl)ccc1Cl.O=C(O)/C=C/C(=O)O` [Example 17, R-γ-(2,5-Dichlorophenoxy)-N,4-dimethyl-benzenebutanamine fumarate], the melting point lay in the range of 126 to 130 °C.
`CNCC[C@@H](Cc1ccc(F)cc1)Oc1cc(Cl)ccc1Cl` [Example 15, R-γ-(2,5-Dichlorophenoxy)-4-fluoro-N-methyl benzenebutanamine] returned a melting point of 160 to 162 °C.
In the case of `CNCC[C@@H](Cc1ccccc1)Oc1cc(Cl)ccc1Cl.O=C(O)C(=O)O` [Example 2, R-γ-(2,5-Dichlorophenoxy)-N-methyl-benzenebutanamine ethanedioate], the melting point lay within 167 to 169 °C.
As for `CNCCC[C@@H](Oc1cc(Cl)ccc1C#N)c1ccccc1.O=C(O)C(=O)O` [Example 1, 4-Chloro-2-[[(1R)-4-(methylamino)-1-phenylbutyl]oxy]benzonitrile ethanedioate], the melting point was 167 to 169 °C.
In turn, `N#Cc1ccc(Cl)cc1O[C@H](CCCNC1CC1)c1ccccc1.O=C(O)C(=O)O` [Example 10, 4-Chloro-2-[[(1R)-4-(cyclopropylamino)-1-phenylbutyl]oxy]-benzonitrile ethanedioate] returned a melting point of 173 to 174 °C.
On the same count and under the same terms, to `N#Cc1ccc(Cl)cc1O[C@H](CCCN1CCCC1)c1ccccc1.O=C(O)C(=O)O` [Example 3, 4-Chloro-2-[[(1R)-1-phenyl-4-(1-pyrrolidinyl)butyl]oxy]-benzonitrile ethanedioate] belongs 157 to 158 °C.
Take `N=C(N)NN` [aminoguanidine]: the pIC50 in data set [1] was 5.00.
As for `N#Cc1ccc(Cl)cc1O[C@H](CCCNCCCO)c1ccccc1.O=C(O)C(=O)O` [Example 11, 4-Chloro-2-[[(1R)-4-[(3-hydroxypropyl)amino]-1-phenylbutyl]oxy]-benzonitrile ethanedioate], the melting point lay within 111 to 112 °C.
`CNCCCC(Oc1cc(Cl)c(F)cc1C#N)c1ccccn1.O=C(O)C(=O)O` (stereo not shown) [Example 32, 4-Chloro-5-fluoro-2-[4-(methylamino)-1-(2-pyridinyl)butoxy]benzonitrile oxalate] returned a melting point of 169 to 170 °C.
For `C[C@H](CO)NCCC[C@@H](Oc1cc(Cl)ccc1C#N)c1ccccc1.O=C(O)C(=O)O` [Example 12, 4-Chloro-2-[[(1R)-4-[[(1R)-2-hydroxy-1-methylethyl]amino]-1-phenylbutyl]oxy]-benzonitrile ethanedioate], the melting point lay in the range of 163 to 164 °C.
The compound `N#Cc1ccc(Cl)cc1O[C@H](CCCNCc1cccnc1)c1ccccc1.O=C(O)C(=O)O` [Example 6, 4-Chloro-2-[[(1R)-1-phenyl-4-[(3-pyridinylmethyl)amino]butyl]oxy]-benzonitrile ethanedioate] returned a melting point of 188 to 189 °C.
`CNCCCC(Oc1cc(Cl)ccc1C#N)c1ccncc1.O=C(O)C(=O)O` (stereo not shown) [Example 37, 4-Chloro-2-[4-(methylamino)-1-(4-pyridinyl)butoxy]benzonitrile oxalate] had a melting point of 169 to 172 °C.
Compound `N#Cc1ccc(Cl)cc1O[C@H](CCCNCCO)c1ccccc1.O=C(O)C(=O)O` [Example 9, 4-Chloro-2-[[(1R)-4-[(2-hydroxyethyl)amino]-1-phenylbutyl]oxy]-benzonitrile ethanedioate] gave a melting point of 158 to 159 °C.
The same measure, in the same setting: with `CNCCCC(Oc1cc(Cl)ccc1C#N)c1ccccn1.O=C(O)C(=O)O` (stereo not shown) [Example 31, 4-Chloro-2-[4-(methylamino)-1-(2-pyridinyl)butoxy]benzonitrile oxalate] the figure was 170 to 171 °C.
